Measured values as given in ChEMBL document CHEMBL1142647, “Potent pyrimidinetrione-based inhibitors of MMP-13 with enhanced selectivity over MMP-14” (Bioorg Med Chem Lett, 2005).

Target: Collagenase 3 (Homo sapiens, UniProt P45452)
Assay: Inhibitory concentration against matrix metalloprotease 13

Compound | IC50
CC1(Oc2ccc(Cl)cc2)C(=O)NC(=O)NC1=O | 390 nM
CCCCC1(Oc2ccc(Oc3ccc(F)cc3)cc2)C(=O)NC(=O)NC1=O | 2 nM
